Laboratory results: the supplement of paper PMC11208160

experiment: recombinant UMI read abundance after kanamycin selection (control-corrected) (log10(CPM+1)); higher = more efficient recombination; extreme values may be limits of the assay; sequences stand for … in AGTGCAGAGAAAATCGGCCAGTTTTCTCTGCCTGCAGTCCGCATGCCGTGGGACCCCTTGGGTTCTAACCTGTTGCCTAGATTTATGCAGCGGACTGCCTTTCTCCCAAAGTGATAAACCGG…AGGTTGGTTTCACT; site = the 11-nt donor
Method: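 Pooled E. coli donor-specificity screen for the IS621 bridge recombinase. Each library member carries a reprogrammed 11-nt donor and a full-length LE bridge RNA expressed in cis from the natural promoter, with a paired donor-binding loop (8-nt LDG + 4-nt RDG) and a target-binding loop fixed to T5. It is co-electroporated with a T5 target plasmid; recombinase is induced with 0.07 mM IPTG and recombinants are selected on kanamycin. UMIs are counted as CPM, averaged over two biological replicates and corrected by the unselected control. Molecule = full bridge RNA written as DNA, built from the T5 scaffold: LDG = donor specificity nt 1-8, RDG = reverse complement of nt 8-11.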
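Further: IS621 bridge recombinase in Escherichia coli cells against a fixed T5 target plasmid.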

Sequence	recombinant UMI read abundance (log10)
AAAACTGCATGGACCGGTTTTCCCGGTAATCCGTATTTGAA (site AAAACTGCTTT)	0.637
AAAAGATCATGGACCGGTTTTCCCGGTAATCCGTATTTGGA (site AAAAGATCTTC)	1.94
AAAAGATCATGGACCGGTTTTCCCGGTAATCCGTATTTGGC (site AAAAGATCTGC)	2.65
AAACACGCATGGACCGGTTTTCCCGGTAATCCGTATTTGGG (site AAACACGCTCC)	0.227
AAACACGCATGGACCGGTTTTCCCGGTAATCCGTATTTGGG (site AACCACGCTCC)	0.0138
AAACACGCATGGACCGGTTTTCCCGGTAATCCGTATTTGGG (site AAGCACGCTCC)	0.0101
AAACACGCATGGACCGGTTTTCCCGGTAATCCGTATTTGGG (site AATCACGCTCC)	0.0344
AAACAGACATGGACCGGTTTTCCCGGTAATCCGTATTTGGA (site AAACAGACTTC)	0.991
AAACGAACATGGACCGGTTTTCCCGGTAATCCGTATTTGTC (site AAACGAACTGA)	1.58
AAACGAACATGGACCGGTTTTCCCGGTAATCCGTATTTGTC (site ACACGAACTGA)	0.524
AAACGAACATGGACCGGTTTTCCCGGTAATCCGTATTTGTC (site AGACGAACTGA)	0
AAACGAACATGGACCGGTTTTCCCGGTAATCCGTATTTGTC (site ATACGAACTGA)	0.767
AAACGAGCATGGACCGGTTTTCCCGGTAATCCGTATTTGAG (site AAACGAGCTCT)	1.78
AAACGTCCATGGACCGGTTTTCCCGGTAATCCGTATTTGAT (site AAACGTCCTAT)	0.701
AAACGTCCATGGACCGGTTTTCCCGGTAATCCGTATTTGAT (site AACCGTCCTAT)	0.00727
AAACGTCCATGGACCGGTTTTCCCGGTAATCCGTATTTGAT (site AAGCGTCCTAT)	0.266
AAACGTCCATGGACCGGTTTTCCCGGTAATCCGTATTTGAT (site AATCGTCCTAT)	0.0129
AAAGACCCATGGACCGGTTTTCCCGGTAATCCGTATTTGGT (site AAAGACCCTAC)	1.02
AAAGCGCCATGGACCGGTTTTCCCGGTAATCCGTATTTGTG (site AAAGCGCCTCA)	0.207
AAAGCGCCATGGACCGGTTTTCCCGGTAATCCGTATTTGTG (site CAAGCGCCTCA)	0.017
AAAGCGCCATGGACCGGTTTTCCCGGTAATCCGTATTTGTG (site GAAGCGCCTCA)	0.0199
AAAGCGCCATGGACCGGTTTTCCCGGTAATCCGTATTTGTG (site TAAGCGCCTCA)	0.019
AAAGGCTCATGGACCGGTTTTCCCGGTAATCCGTATTTGCG (site AAAGGCTCTCG)	2.61
AAAGTAACATGGACCGGTTTTCCCGGTAATCCGTATTTGCT (site AAAGTAACTAG)	2.89

Sequence	recombinant UMI read abundance (log10)
AAAGTAACATGGACCGGTTTTCCCGGTAATCCGTATTTGCT (site AACGTAACTAG)	2.06
AAAGTAACATGGACCGGTTTTCCCGGTAATCCGTATTTGCT (site AAGGTAACTAG)	1.66
AAAGTAACATGGACCGGTTTTCCCGGTAATCCGTATTTGCT (site AATGTAACTAG)	2.1
AAAGTATCATGGACCGGTTTTCCCGGTAATCCGTATTTGCA (site AAAGTATCTTG)	2.86
AAAGTATCATGGACCGGTTTTCCCGGTAATCCGTATTTGCA (site ACAGTATCTTG)	2.64
AAAGTATCATGGACCGGTTTTCCCGGTAATCCGTATTTGCA (site AGAGTATCTTG)	2.83
AAAGTATCATGGACCGGTTTTCCCGGTAATCCGTATTTGCA (site ATAGTATCTTG)	2.62
AAAGTATCATGGACCGGTTTTCCCGGTAATCCGTATTTGCT (site AAAGTATCTAG)	2.73
AAAGTATCATGGACCGGTTTTCCCGGTAATCCGTATTTGCT (site ACAGTATCTTG)	0
AAAGTGTCATGGACCGGTTTTCCCGGTAATCCGTATTTGAC (site AAAGTGTCTGT)	2.37
AAAGTGTCATGGACCGGTTTTCCCGGTAATCCGTATTTGAC (site AACGTGTCTGT)	0
AAAGTGTCATGGACCGGTTTTCCCGGTAATCCGTATTTGAC (site AAGGTGTCTGT)	0
AAAGTGTCATGGACCGGTTTTCCCGGTAATCCGTATTTGAC (site AATGTGTCTGT)	0.497
AAAGTTGCATGGACCGGTTTTCCCGGTAATCCGTATTTGAT (site AAAGTTGCTAT)	2.62
AAATCTACATGGACCGGTTTTCCCGGTAATCCGTATTTGTG (site AAATCTACTCA)	0.209
AAATCTACATGGACCGGTTTTCCCGGTAATCCGTATTTGTG (site ACATCTACTCA)	0.0169
AAATCTACATGGACCGGTTTTCCCGGTAATCCGTATTTGTG (site AGATCTACTCA)	0.0155
AAATCTACATGGACCGGTTTTCCCGGTAATCCGTATTTGTG (site ATATCTACTCA)	0.0108
AACAAGACATGGACCGGTTTTCCCGGTAATCCGTATTTGAC (site AACAAGACTGT)	2.21
AACAGTCCATGGACCGGTTTTCCCGGTAATCCGTATTTGAT (site AACAGTCCTAT)	0.504
AACAGTCCATGGACCGGTTTTCCCGGTAATCCGTATTTGAT (site AACCGTCCTAT)	0.00935
AACAGTCCATGGACCGGTTTTCCCGGTAATCCGTATTTGAT (site AACGGTCCTAT)	0.0119
AACAGTCCATGGACCGGTTTTCCCGGTAATCCGTATTTGAT (site AACTGTCCTAT)	0
AACCAAACATGGACCGGTTTTCCCGGTAATCCGTATTTGAG (site AACCAAACTCT)	1.48

Sequence	recombinant UMI read abundance (log10)
AACCAAGCATGGACCGGTTTTCCCGGTAATCCGTATTTGAG (site AACCAAGCTCT)	1.8
AACCAAGCATGGACCGGTTTTCCCGGTAATCCGTATTTGAG (site ACCCAAGCTCT)	0.33
AACCAAGCATGGACCGGTTTTCCCGGTAATCCGTATTTGAG (site AGCCAAGCTCT)	0.217
AACCAAGCATGGACCGGTTTTCCCGGTAATCCGTATTTGAG (site ATCCAAGCTCT)	0.642
AACCACGCATGGACCGGTTTTCCCGGTAATCCGTATTTGGG (site AAACACGCTCC)	0.0131
AACCACGCATGGACCGGTTTTCCCGGTAATCCGTATTTGGG (site AACCACGCTCC)	0.0319
AACCACGCATGGACCGGTTTTCCCGGTAATCCGTATTTGGG (site AAGCACGCTCC)	0
AACCACGCATGGACCGGTTTTCCCGGTAATCCGTATTTGGG (site AATCACGCTCC)	0.00485
AACCGTACATGGACCGGTTTTCCCGGTAATCCGTATTTGAT (site AACCGTACTAT)	1
AACCGTACATGGACCGGTTTTCCCGGTAATCCGTATTTGAT (site AACCGTCCTAT)	0.0158
AACCGTACATGGACCGGTTTTCCCGGTAATCCGTATTTGAT (site AACCGTGCTAT)	0.108
AACCGTACATGGACCGGTTTTCCCGGTAATCCGTATTTGAT (site AACCGTTCTAT)	0
AACCGTCCATGGACCGGTTTTCCCGGTAATCCGTATTTGAC (site AACCGTCCTAT)	0
AACCGTCCATGGACCGGTTTTCCCGGTAATCCGTATTTGAC (site AACCGTCCTCT)	0.0147
AACCGTCCATGGACCGGTTTTCCCGGTAATCCGTATTTGAC (site AACCGTCCTGT)	0.786
AACCGTCCATGGACCGGTTTTCCCGGTAATCCGTATTTGAC (site AACCGTCCTTT)	0.477
AACCGTCCATGGACCGGTTTTCCCGGTAATCCGTATTTGAG (site AACCGTCCTAT)	0.0112
AACCGTCCATGGACCGGTTTTCCCGGTAATCCGTATTTGAG (site AACCGTCCTCT)	0.0226
AACCGTCCATGGACCGGTTTTCCCGGTAATCCGTATTTGAG (site AACCGTCCTGT)	0
AACCGTCCATGGACCGGTTTTCCCGGTAATCCGTATTTGAG (site AACCGTCCTTT)	0.00366
AACCGTCCATGGACCGGTTTTCCCGGTAATCCGTATTTGAT (site AAACGTCCTAT)	0.00674
AACCGTCCATGGACCGGTTTTCCCGGTAATCCGTATTTGAT (site AACAGTCCTAT)	0.0027
AACCGTCCATGGACCGGTTTTCCCGGTAATCCGTATTTGAT (site AACCATCCTAT)	0.62
AACCGTCCATGGACCGGTTTTCCCGGTAATCCGTATTTGAT (site AACCCTCCTAT)	0.00675
